Experimental data reported in US20240059712A1, “BIFUNCTIONAL COMPOUNDS AND PHARMACEUTICAL USES THEREOF” (priority 2022, published 2024).

Target: T1, KRAS^G12D protein (Homo sapiens, UniProt P01116, G12D)
T1 construct: host or cells: Aspc-1 (AsPC-1) cells
Test: Protein degradation study (western blot) in Aspc-1 cells
Type: cell-based
Conditions: for inhibition at 0.001 µM / inhibition at 0.005 µM / inhibition at 0.05 µM / inhibition at 1 µM / inhibition at 0.1 µM: ASPC1, 24 h, 24 hours; for inhibition at 0.001 µM: Aspc-1 cells treated with 1 nM compound; for inhibition at 0.001 µM / inhibition at 0.005 µM / inhibition at 0.05 µM: read-out: Rate of degradation; for inhibition at 0.005 µM: Aspc-1 cells treated with 0.005 μM compound; for inhibition at 0.05 µM: Aspc-1 cells treated with 50 nM compound; for DC50: Aspc-1 cells, half-maximum degradation concentration, read-out: DC50 of compounds induced Ras G12D protein degradation; for inhibition at 1 µM: Aspc-1 cells treated with 1 μM compound; for inhibition at 1 µM / inhibition at 0.1 µM: read-out: Rate of protein degradation; for inhibition at 0.1 µM: Aspc-1 cells treated with 0.1 μM compound
Description: Aspc-1 (Cobioer, CBP60546) cells in exponential growth phase were inoculated on a 6-well cell culture plate (Corning, 3516) at density of 1E6/well; and cells in the plate were cultured in 37° C. incubator containing 5%-carbon dioxide. The next day, testing compounds were dissolved in DMSO (Sigma, RNBF5902) for the preparation of a 10-mM concentration stock solution. The stock solution was diluted with complete medium (RPMI-1640 supplemented with 10% fetal bovine serum, 1% penicillin-streptomycin), yielding working solutions of various concentrations. The plate, after the addition of compounds, was placed in a 5% carbon dioxide incubator, and incubated at 37° C. for 24 hours (final DMSO concentration was 0.1%). The plate was then removed from the incubator, and the cells were washed twice with precooled PBS (Gibco, 14190250), followed by addition of 80-μL RIPA lysis buffer (containing protease inhibitor (Invitrogen™, AM2696)) to each well. The adherent cells were scraped off with a cell scraper, and the cell lysate was transferred to a 1.5-mL centrifuge tube followed with a 30-minute incubation on ice. The lysate was then clarified with centrifugation at 14000 rpm for 10 min at 4° C. The supernatant was transferred into a new 1.5-mL centrifuge tube, and protein concentration was measured with BCA protein detection kit (Thermo Fisher, 23225). G12D protein level was assessed by western blot.
A mixture of cell lysate (40 μL) and loading buffer (10 μL, 5×SDS (Beyotime, P0015L)) was denatured in a water-bath at 95° C. for 10 min. The denatured protein sample, at 30 μL/well, was loaded into corresponding well of 4-20% Bis-Tris gel (Kingsley, M00656). Protein samples were initially electrophoresed at 80 V for 30 minutes, followed by 120 V for 40 minutes, until the bromophenol blue strip ran to an appropriate position. After electrophoresis, iBlot2 (Life Technologies, IB21001) was used to transfer the separated samples onto PVDF film. The PVDF membrane was washed with double-distilled water and then blocked in TBST (Thermo Scientific, 28360) buffer containing 5% non-fat milk, for 2 hours. Blocked membrane was rinsed with tris-buffered saline tween-20 (Thermo Scientific, 28360, TBST) three times, 10 minutes each. Membrane was then incubated with 1:1000 diluted KRAS primary antibody (CST, cat #14429S) overnight at 4° C. Membrane was rinsed in a way described previously followed by 1 hour incubation of secondary antibody at room temperature. After washing the film for three times with TBST, ECL color developing solution was applied, and image was captured with Biorad Chemi Doc gel imager. The band gray value was quantified (Image Lab), and protein degradation level was calculated according to the following formula:
Level of RAS protein expression=(RAS-compound/GAPDH)/(RAS-DMSO/GAPDH)
Level of degradation (%)=(1−Rate of RAS protein expression)×100
Symbols of −, +, ++, +++ indicate that the degradation level of Ras protein induced by testing compounds are […], 11 to 30%, 31 to 60% and greater than 60%, respectively.
Half-maximum degradation concentrations (DC50s) of testing compounds were calculated using GraphPad Prism and their values were shown in Table 6. Symbols of […] represent DC50s equal or less than 10 nM, 11-50 nM, 51-100 nM, and 101-200 nM, respectively.

T1 sequence (P01116 1-188 isoform P01116-2 G12D): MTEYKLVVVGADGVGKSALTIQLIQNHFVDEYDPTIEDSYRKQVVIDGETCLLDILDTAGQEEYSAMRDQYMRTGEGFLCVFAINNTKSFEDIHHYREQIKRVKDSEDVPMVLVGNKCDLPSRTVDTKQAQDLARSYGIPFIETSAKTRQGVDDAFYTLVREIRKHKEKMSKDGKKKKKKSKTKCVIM

## C#Cc1c(F)ccc2cc(O)cc(-c3ncc4c(N5CC6CCC(C5)N6)nc(OCC5(CN6CCC(CN7CCC(c8cccc(N9CC(=O)NC9=O)c8)CC7)CC6)CC5)nc4c3F)c12 [Compound 7a]
  inhibition at 0.001 µM: 11 to 30%

## C#Cc1c(F)ccc2cc(O)cc(-c3ncc4c(N5CC6CCC(C5)N6)nc(OCC5(CN6CCC(CN7CCC(c8cccc(N9CCC(=O)NC9=O)c8C)CC7)CC6)CC5)nc4c3F)c12 [Compound 8a]
  inhibition at 0.001 µM: 11 to 30%

## Cc1ccc2[nH]ncc2c1-c1ncc2c(N3CC4CCC(C3)N4)nc(OCC3(CN4CCC5(CC4)CC(N4CCC(c6ccc7c8c(cccc68)C(=O)N7C6CCC(=O)NC6=O)CC4)C5)CC3)nc2c1F (stereo not drawn) [Compound 18a]
  inhibition at 0.005 µM: 11 to 30%

## Nc1cc(Cl)c(C(F)(F)F)c(-c2ncc3c(N4CC5CCC(C4)N5)nc(OCC4(CN5CCC6(CC5)CC(N5CCC(c7cccc(N8CCC(=O)NC8=O)c7)CC5)C6)CC4)nc3c2F)c1 [Compound 19a]
  inhibition at 0.005 µM: 11 to 30%
  inhibition at 0.05 µM: 11 to 30%

## C#Cc1c(F)ccc2cccc(-c3ncc4c(N5CC6CCC(C5)N6)nc(OCC5(CN6CCC7(CC6)CC(N6CCC(c8ccc(NC9CCC(=O)NC9=O)cc8F)CC6)C7)CC5)nc4c3F)c12 (stereo not drawn) [Compound 22a]
  inhibition at 0.005 µM: 11 to 30%
  inhibition at 0.05 µM: 31 to 60%

## C#Cc1c(F)ccc2cc(O)cc(-c3ncc4c(N5CC6CCC(C5)N6)nc(OCC5(CN6CC7(CC(CN8CCC(c9ccc%10c(C%11CCC(=O)NC%11=O)nn(C)c%10c9)CC8)C7)C6)CC5)nc4c3F)c12 (stereo not drawn) [Compound 25a]
  inhibition at 0.005 µM: 31 to 60%
  inhibition at 0.05 µM: 31 to 60%

## C#Cc1c(F)ccc2cc(O)cc(-c3ncc4c(N5CC6CCC(C5)N6)nc(OCC5(CN6CC7(CC(C(=O)N8CCC(c9ccc%10c(C%11CCC(=O)NC%11=O)nn(C)c%10c9)CC8)C7)C6)CC5)nc4c3F)c12 (stereo not drawn) [Compound 27a]
  inhibition at 0.005 µM: 11 to 30%
  inhibition at 0.05 µM: 11 to 30%

## C#Cc1c(F)ccc2cc(O)cc(-c3ncc4c(N5CC6CCC(C5)N6)nc(OCCCN5CCN(C(=O)CN6CCC(c7ccc8c(C9CCC(=O)NC9=O)nn(C)c8c7)CC6)CC5)nc4c3F)c12 (stereo not drawn) [Compound 33]
  DC50: 0.011 to 0.05 µM

## C#Cc1c(F)ccc2cc(O)cc(-c3ncc4c(N5CC6CCC(C5)N6)nc(OCC5(CN6CCC(N7CC(N8CCC(c9ccc%10c(C%11CCC(=O)NC%11=O)nn(C)c%10c9)CC8)C7)CC6)CC5)nc4c3F)c12 (stereo not drawn) [Compound 34a]
  inhibition at 0.005 µM: 31 to 60%
  inhibition at 0.05 µM: > 60%

## C#Cc1c(F)ccc2cc(O)cc(-c3ncc4c(N5CC6CCC(C5)N6)nc(OCC5(CN6CCC(N7CC(C(=O)N8CCC(c9ccc%10c(C%11CCC(=O)NC%11=O)nn(C)c%10c9)CC8)C7)CC6)CC5)nc4c3F)c12 (stereo not drawn) [Compound 35a]
  inhibition at 0.005 µM: 31 to 60%
  inhibition at 0.05 µM: > 60%

## C#Cc1c(F)ccc2cc(O)cc(-c3ncc4c(N5CC6CCC(C5)N6)nc(OCC5(CN6CCC7(CC6)CC(N6CCC(c8ccc(NC9%10CC(C9)C(=O)NC%10=O)cc8F)CC6)C7)CC5)nc4c3F)c12 [Compound 36a]
  inhibition at 0.005 µM: > 60%
  inhibition at 0.05 µM: > 60%
  DC50: < 0.01 µM

## C#Cc1c(F)ccc2cc(O)cc(-c3ncc4c(N5CC6CCC(C5)N6)nc(OCC5(CN6CCC7(CC6)CC(N6CCC(c8ccc(CN9CCC(=O)NC9=O)cc8)CC6)C7)CC5)nc4c3F)c12 [Compound 38a]
  inhibition at 0.005 µM: 11 to 30%

## C#Cc1c(F)ccc2cc(O)cc(-c3ncc4c(N5CC6CCC(C5)N6)nc(OCC5(CN6CCC7(CC6)CC(c6cc8c(cc6F)c(N6CCC(=O)NC6=O)nn8C)C7)CC5)nc4c3F)c12 [Compound 39a]
  inhibition at 0.005 µM: > 60%
  DC50: < 0.01 µM

## C#Cc1c(F)ccc2cc(O)cc(-c3ncc4c(N5CC6CCC(C5)N6)nc(OCC5(CN6CCC7(CC6)CC(N6CCC(c8cc9c(cc8F)c(C8CCC(=O)NC8=O)nn9C)CC6)C7)CC5)nc4c3F)c12 (stereo not drawn) [Compound 41a]
  inhibition at 0.005 µM: > 60%
  inhibition at 0.05 µM: > 60%

## C#Cc1c(F)ccc2cc(O)cc(-c3ncc4c(N5CC6CCC(C5)N6)nc(OC5CCN(CCCCCCCCCCC(=O)N[C@H](C(=O)N6C[C@H](O)C[C@H]6C(=O)NCc6ccc(-c7scnc7C)cc6)C(C)(C)C)CC5)nc4c3F)c12 [Compound 43]
  DC50: 0.051 to 0.1 µM

## C#Cc1c(F)ccc2cc(O)cc(-c3ncc4c(N5CC6CCC(C5)N6)nc(OC5CCN(CCCCCCCCCCC(=O)N[C@H](C(=O)N6C[C@H](O)C[C@H]6C(=O)N[C@@H](C)c6ccc(-c7scnc7C)cc6)C(C)(C)C)CC5)nc4c3F)c12 [Compound 45]
  DC50: 0.011 to 0.05 µM

## C#Cc1c(F)ccc2cc(O)cc(-c3ncc4c(N5CC6CCC(C5)N6)nc(OC5CCN(CCCCCCCCCCC(=O)N[C@H](C(=O)N6C[C@H](O)C[C@H]6C(=O)N[C@@H](C)c6ccc(-c7scnc7C)cc6)C(C)(C)C)C5)nc4c3F)c12 (stereo partly drawn) [Compound 55]
  DC50: 0.051 to 0.1 µM

## C#Cc1c(F)ccc2cc(O)cc(-c3ncc4c(N5CC6CCC(C5)N6)nc(OCC5CCN(CCCCCCCCCCC(=O)N[C@H](C(=O)N6C[C@H](O)C[C@H]6C(=O)N[C@@H](C)c6ccc(-c7scnc7C)cc6)C(C)(C)C)C5)nc4c3F)c12 (stereo partly drawn) [Compound 56]
  DC50: 0.011 to 0.05 µM

## C#Cc1c(F)ccc2cc(O)cc(-c3ncc4c(N5CC6CCC(C5)N6)nc(OCC5CCN(CCCCCCCCCCC(=O)N6CCC(c7ccc8c(C9CCC(=O)NC9=O)nn(C)c8c7)CC6)C5)nc4c3F)c12 (stereo not drawn) [Compound 57]
  DC50: < 0.01 µM

## C#Cc1c(F)ccc2cc(O)cc(-c3ncc4c(N5CC6CCC(C5)N6)nc(OCCCN5CCC(C(=O)N6CCN(C(=O)C[C@H](NC(=O)[C@@H]7C[C@@H](O)CN7C(=O)[C@@H](NC(=O)C7(F)CC7)C(C)(C)C)c7ccc(-c8scnc8C)cc7)CC6)CC5)nc4c3F)c12 [Compound 65]
  inhibition at 1 µM: 11 to 30%

## C#Cc1c(F)ccc2cc(O)cc(-c3ncc4c(N5CC6CCC(C5)N6)nc(OC5CCN(CC(=O)N6CCC(c7ccc8c(C9CCC(=O)NC9=O)nn(C)c8c7)CC6)CC5)nc4c3F)c12 (stereo not drawn) [Compound 69]
  inhibition at 0.1 µM: > 60%
  inhibition at 1 µM: > 60%

## C#Cc1c(F)ccc2cc(O)cc(-c3ncc4c(N5CC6CCC(C5)N6)nc(OC5CCN(CC6CCN(C(=O)C[C@H](NC(=O)[C@@H]7C[C@@H](O)CN7C(=O)[C@@H](NC(=O)C7(F)CC7)C(C)(C)C)c7ccc(-c8scnc8C)cc7)CC6)CC5)nc4c3F)c12 [Compound 70]
  inhibition at 0.1 µM: 11 to 30%
  inhibition at 1 µM: > 60%

## C#Cc1c(F)ccc2cc(O)cc(-c3ncc4c(N5CC6CCC(C5)N6)nc(OCCCN5CCN(CCC(=O)N6CCC(c7ccc8c(C9CCC(=O)NC9=O)nn(C)c8c7)CC6)CC5)nc4c3F)c12 (stereo not drawn) [Compound 74]
  inhibition at 0.1 µM: 31 to 60%

## C#Cc1c(F)ccc2cc(O)cc(-c3ncc4c(N5CC6CCC(C5)N6)nc(OCC5(CN6CCC(c7ccc8c(C9CCC(=O)NC9=O)nn(C)c8c7)CC6)CC5)nc4c3F)c12 (stereo not drawn) [Compound 99]
  inhibition at 0.1 µM: > 60%

## C#Cc1c(F)ccc2cc(O)cc(-c3ncc4c(N5CC6CCC(C5)N6)nc(OCC5(CN6CCC(C(=O)N7CCC(c8ccc9c(C%10CCC(=O)NC%10=O)nn(C)c9c8)CC7)CC6)CC5)nc4c3F)c12 (stereo not drawn) [Compound 100]
  inhibition at 0.1 µM: > 60%

## C#Cc1c(F)ccc2cc(O)cc(-c3ncc4c(N5CC6CCC(C5)N6)nc(OC5CCN(CC(=O)N6CCC7(CC6)CC(N6CCC(c8ccc9c(C%10CCC(=O)NC%10=O)nn(C)c9c8)CC6)C7)C5)nc4c3F)c12 (stereo not drawn) [Compound 101]
  inhibition at 0.1 µM: 11 to 30%

## C#Cc1c(F)ccc2cc(O)cc(-c3ncc4c(N5CC6CCC(C5)N6)nc(N5CC(N6CCN(C(=O)CN7CCC(c8ccc9c(C%10CCC(=O)NC%10=O)nn(C)c9c8)CC7)CC6)C5)nc4c3F)c12 (stereo not drawn) [Compound 120]
  inhibition at 0.1 µM: 11 to 30%
